Legend:
[1] = tested on: mice with cough induced from aqueous ammonia; assay: Cough relieving effect of singly administered compounds in mice with cough induced from aqueous ammonia; format: in vivo, male KM mice; settings: example compounds 7.44 μmol/ml, codeine phosphate 0.47 μmol/ml; for Coughs: coughs counted in 3 min after 15 s atomized 25% aqueous ammonia, 1 hr after administration, intragastric gavage or intraperitoneal injection, 0.2 ml/10 g body weight, mean ± spread; for Cough relieving rate: relative to blank group (17.8 ± 5.4 coughs), same dosing as Coughs, 0.2 ml/10 g
Source text: II. Test on Cough Relieving Effect of Singly Administered Example Compounds of the Present Invention in Mice with Cough Induced from Aqueous Ammonia
1. Test animals: male KM mice (available from Guangdong Medical Laboratory Animal Center, Certificate No.: SCXK (Guangdong) 2008-0002, No. 0113738).
2. Test groups and treatment with drugs: Blank control group: treatment with 50% (v/v) PEG400 in physiological saline.
Treatment group with codeine phosphate as positive control—Codeine phosphate (Lott 20091212) is manufactured by Qinghai Pharmaceutical Co., Ltd. Before test, powdered codeine phosphate was added to 50% (v/v) PEG400 in physiological saline, to formulate a 0.47 μmol/ml solution.
Eligible male KM mice were randomly designated to a blank control group, and treatment groups with codeine phosphate as positive control and with example compounds, according to […].
The animals in each group were administered by intragastric gavage or intraperitoneal injection at a dosage of 0.2 ml/10 g of body weight, and placed in a cough inducing chamber 1 hr after administration. 1 ml of 25% concentrated aqueous ammonia was added to an atomizing cup and atomized for 15 s (at a rate of 0.15 ml/min). The coughs in 3 min were counted (during the typical cough, the mouth was opened and the head was lowered, which were accompanied by quivering of the neck and frequently a forward rushing).
Statistical analysis of data—Statistical analysis of all the data was conducted by SPSS 17.0 after the outliers were excluded by t test. Analysis of variance was performed by one-way ANOVA, multiple comparisons between the blank control group and each treatment group were carried out by Dunnett test, and the pairwise multiple comparisons between each treatment group and the codeine phosphate group were conducted by Duncan test.

Row | SMILES | Coughs [1] | Cough relieving rate [1] [%] | melting point [°C]
1 | CCCc1c(O)cc2c(c1O)C(=O)CC(c1ccc(O)cc1)O2 (centres unmarked) [Example 2, 6-n-propyl-2,3-dihydro-5,7-dihydroxy-2-(4-hydroxyphenyl)chromen-4-one] | 12.4 ± 4.6 | 30.16 | 173 to 175
2 | C=CCc1c(O)c(Br)c(O)c2c1OC(c1ccc(O)cc1)CC2=O (centres unmarked) [Example 3, 8-allyl-6-bromo-2,3-dihydro-5,7-dihydroxy-2-(4-hydroxyphenyl)chromen-4-one] | 11.2 ± 6.2 | 37.28 | 203 to 205
3 | C=CCc1c(O)c(Br)c2c(c1O)C(=O)CC(c1ccc(O)cc1)O2 (centres unmarked) [Example 4, 6-allyl-8-bromo-2,3-dihydro-5,7-dihydroxy-2-(4-hydroxyphenyl)chromen-4-one] | 11.0 ± 4.1 | 38.03 | 158 to 160
4 | C=CCc1c(O)c(Cl)c2c(c1O)C(=O)CC(c1ccc(O)cc1)O2 (centres unmarked) [Example 5, 6-allyl-8-chloro-2,3-dihydro-5,7-dihydroxy-2-(4-hydroxyphenyl)chromen-4-one] | 11.8 ± 7.3 | 33.49 | 158 to 160
5 | CCCc1c(O)c(Cl)c(O)c2c1OC(c1ccc(O)cc1)CC2=O (centres unmarked) [Example 6, 6-chloro-2,3-dihydro-5,7-dihydroxy-2-(4-hydroxyphenyl)-8-propylchromen-4-one] | 9.1 ± 3.9 | 49.06 | 175 to 176
6 | C=CCc1c(O)c(Cl)c(O)c2c1OC(c1ccc(O)cc1)CC2=O (centres unmarked) [Example 7, 8-allyl-6-chloro-2,3-dihydro-5,7-dihydroxy-2-(4-hydroxyphenyl)chromen-4-one] | 10.5 ± 5.8 | 40.85 | 215 to 216
7 | C=CCc1c(O)c(O)c2c(c1O)C(=O)CC(c1ccc(O)cc1)O2 (centres unmarked) [Example 8, 6-allyl-2,3-dihydro-5,7,8-Trihydroxy-2-(4-hydroxyphenyl)chromen-4-one] | 10.2 ± 2.6 | 42.64 | 95 to 100
8 | CCCc1c(O)c(Cl)c2c(c1O)C(=O)CC(c1ccc(O)cc1)O2 (centres unmarked) [Example 9, 8-Chloro-2,3-dihydro-5,7-dihydroxy-2-(4-hydroxyphenyl)-6-propylchromen-4-one] | 10.7 ± 4.2 | 39.82 | 175 to 176
9 | C=CCc1c(O)c(I)c2c(c1O)C(=O)CC(c1ccc(O)cc1)O2 (centres unmarked) [Example 10, 8-iodo-2,3-dihydro-5,7-dihydroxy-2-(4-hydroxyphenyl)-6-allylchromen-4-one] | 12.2 ± 4.0 | 31.24 | 218 to 220
10 | O=CCc1c(O)cc(O)c2c1O[C@H](c1ccc(O)cc1)CC2=O [Example 11, Naringenin-8-acetaldehyde] | 11.4 ± 6.5 | 35.78 | 150 to 155
11 | O=CCc1c(O)cc2c(c1O)C(=O)C[C@@H](c1ccc(O)cc1)O2 [Example 12, Naringenin-6-acetaldehyde] | 9.3 ± 4.3 | 47.59 | 178 to 180
12 | O=C(O)Cc1c(O)c(Cl)c(O)c2c1O[C@H](c1ccc(O)cc1)CC2=O [Example 13, 6-chloro-naringenin-8-acetic acid] | 7.4 ± 3.4 | 58.43 | 185 to 186
13 | O=C(O)Cc1c(O)c(Cl)c2c(c1O)C(=O)C[C@@H](c1ccc(O)cc1)O2 [Example 14, 8-chloro-naringenin-6-acetic acid] | 9.3 ± 3.9 | 47.59 | 185 to 186
14 | O=C(O)Cc1c(O)cc(O)c2c1O[C@H](c1ccc(O)cc1)CC2=O [Example 15, Naringenin-8-acetic acid] | 8.3 ± 5.8 | 53.31 | 245 to 247
15 | COc1ccc2c3c1O[C@H]1[C@@H](O)C=C[C@H]4[C@@H](C2)N(C)CC[C@@]341 [codeine phosphate, reference compound] | 10.8 ± 3.5 | 39.60 | –

Source: patent US20160130245A1, “6,8-SUBSTITUTED NARINGENIN DERIVATIVE AND USE THEREOF” (SUN YAT-SEN UNIVERSITY, priority 2012, published 2016)
